Tests used:
[1] = test system: Mus musculus; assay: Acute toxicity in po dosed CD-1 mouse assessed as mortality after 24 hrs; type: organism-based; conditions: in vivo
[2] = test system: Mus musculus; assay: Anticonvulsant activity in po dosed CD-1 mouse assessed as protection against strychnine-induced convulsion after 30 mins; type: functional; conditions: CD-1, po, 0.5 h
[3] = test system: Mus musculus; assay: Induction of muscle relaxation in po dosed CD-1 mouse after 30 mins by rotary drum test; type: functional; conditions: CD-1, po, 0.5 h
[4] = test system: Mus musculus; assay: Anticonvulsant activity in po dosed CD-1 mouse assessed as protection against maximal electroshock-induced convulsion; type: functional; conditions: CD-1, po
[5] = test system: Mus musculus; assay: Potentiation of hexobarbital-induced sedative effect in po dosed CD-1 mouse assessed as loss of righting reflex after 30 secs; type: functional; conditions: CD-1, po
[6] = test system: Mus musculus; assay: Anticonvulsant activity in po dosed CD-1 mouse assessed as protection against pentylenetetrazole-induced convulsion; type: functional; conditions: CD-1, po
[7] = test system: Mus musculus; assay: Antianxiety activity in po dosed CD-1 mouse assessed as inhibition of foot shock-induced aggression after 30 mins relative to control; type: functional; conditions: CD-1, po, 0.5 h
[8] = test system: Mus musculus; assay: Potentiation of chlorprothixene-induced sedative effect in po dosed CD-1 mouse assessed as loss of righting reflex; type: functional; conditions: CD-1, po

In the case of `O=C1/C(=C/N2CCOCC2)N=C2CN=C(c3ccccc3)c3cc(Cl)ccc3N12`, the ED50 [1] was > 1000 mg/kg, the ED50 [2] was > 50 mg/kg and the ED50 [3] was 29 mg/kg. For the same molecule, the ED50 [4] was 7 mg/kg, the ED50 [5] was > 50 mg/kg and the ED50 [6] was 2.3 mg/kg. For the same molecule, the ED50 [7] was 2.4 mg/kg and the ED50 [8] was 20.3 mg/kg.

With `CCN(CC)CCN/C=C1\N=C2CN=C(c3ccccc3)c3cc(Cl)ccc3N2C1=O` the ED50 [1] was > 1000 mg/kg, the ED50 [2] was > 50 mg/kg and the ED50 [3] was > 50 mg/kg. For the same molecule, the ED50 [4] was > 50 mg/kg, the ED50 [5] was > 50 mg/kg and the ED50 [6] was 16 mg/kg. The ED50 [7] was > 20 mg/kg and the ED50 [8] was > 50 mg/kg.

With `O=C1/C(=C/N2CCSCC2)N=C2CN=C(c3ccccc3)c3cc(Cl)ccc3N12` the ED50 [1] was > 1000 mg/kg, the ED50 [2] was > 50 mg/kg and the ED50 [3] was > 50 mg/kg. For the same molecule, the ED50 [4] was > 50 mg/kg, the ED50 [5] was > 50 mg/kg and the ED50 [6] was > 50 mg/kg. For the same molecule, the ED50 [7] was > 20 mg/kg and the ED50 [8] was > 50 mg/kg.

For `CC(C)(C)N/C=C1\N=C2CN=C(c3ccccc3)c3cc(Cl)ccc3N2C1=O`, the ED50 [1] was > 1000 mg/kg, the ED50 [2] was > 50 mg/kg and the ED50 [3] was 14.5 mg/kg. It also gave an ED50 [4] of 19 mg/kg, an ED50 [5] of 5 mg/kg and an ED50 [6] of 3.25 mg/kg. The ED50 [7] was 1.1 mg/kg and the ED50 [8] was 14 mg/kg.
